Assays:
[1] = target: [35S]-TBPS binding in rat brain cortical membranes; experiment: Steroid inhibition of [35S]-TBPS binding, rat brain cortical membranes; conditions: 3 nM [35S]-TBPS, in the presence of 5 μM GABA, read-out: 35S-TBPS Radioligand Displacement (IC50)
Description: TBPS binding assays using rat brain cortical membranes in the presence of 5 μM GABA has been described (Gee et al, J. Pharmacol. Exp. Ther. 1987, 241, 346-353; Hawkinson et al, Mol. Pharmacol. 1994, 46, 977-985; Lewin, A. H et al., Mol. Pharmacol. 1989, 35, 189-194).
Briefly, cortices are rapidly removed following decapitation of carbon dioxide-anesthetized Sprague-Dawley rats (200-250 g). The cortices are homogenized in 10 volumes of ice-cold 0.32 M sucrose using a glass/teflon homogenizer and centrifuged at 1500×g for 10 min at 4° C. The resultant supernatants are centrifuged at 10,000×g for 20 min at 4° C. to obtain the P2 pellets. The P2 pellets are resuspended in 200 mM NaCl/50 mM Na—K phosphate pH 7.4 buffer and centrifuged at 10,000×g for 10 min at 4° C. This washing procedure is repeated twice and the pellets are resuspended in 10 volumes of buffer. Aliquots (100 μL) of the membrane suspensions are incubated with 3 nM [^35S]-TBPS and 5 μL aliquots of test drug dissolved in dimethyl sulfoxide (DMSO) (final 0.5%) in the presence of 5 μM GABA. The incubation is brought to a final volume of 1.0 mL with buffer. Nonspecific binding is determined in the presence of 2 μM unlabeled TBPS and ranged from 15 to 25%. Following a 90 min incubation at room temp, the assays are terminated by filtration through glass fiber filters (Schleicher and Schuell No. 32) using a cell harvester (Brandel) and rinsed three times with ice-cold buffer. Filter bound radioactivity is measured by liquid scintillation spectrometry. Non-linear curve fitting of the overall data for each drug averaged for each concentration is done using Prism (GraphPad). […] The concentration of test compound producing 50% inhibition (IC50) of specific binding and the maximal extent of inhibition (Imax) are determined for the individual experiments with the same model used for the overall data and then the mean±SEM.s of the individual experiments are calculated.
Various compounds are or can be screened to determine their potential as modulators of [^35S]-TBPS binding in vitro. These assays are or can be performed in accordance with the above discussed procedures.

[2] = target: T1, GABAA receptors composed of the α1β2γ2 subunits (GABRA1/GABRB2/GABRG2) (Homo sapiens, UniProt P14867+P47870); experiment: Two Electrode Voltage Clamp (TEVC), GABA receptor potentiation in Xenopus laevis oocytes, α1β2γ2; assay type: cell-based; conditions: 10 μM compound, 10 μM GABA, read-out: GABA (α1β2γ2) % efficacy at 10 μM
T1 construct: expressed in transfected cells; host or cells: Xenopus laevis oocytes, injected (ratio 1:1:1)
Description: The Two Electrode Voltage Clamp (TEVC) technique was used to investigate the effects of compounds at a concentration of 10 μM on GABAA receptors composed of the α1β2γ2 or α4β3δ subunits expressed in oocytes from the Xenopus laevis. GABA-evoked currents were recorded from oocytes that expressed the GABA receptors and the modulatory effects of the test items on these currents were investigated.
Ovaries were harvested from Xenopus laevis females that had been deeply anesthetized by cooling at 4° C. and immersion in Tricaine methanesulfonate (MS-222 at a concentration of 150 mg/L) in sodium bicarbonate (300 mg/L). Once anesthetized the animal was decapitated and pithed following the rules of animal rights from the Geneva canton. A small piece of ovary was isolated for immediate preparation while the remaining part was placed at 4° C. in a sterile Barth solution containing in mM NaCl 88, KCl 1, NaHCO3 2.4, HEPES 10, MgSO4·7H2O 0.82, Ca(NO3)2·4H2O 0.33, CaCl2·6H2O 0.41, at pH 7.4, and supplemented with 20 μg/ml of kanamycin, 100 unit/ml penicillin and 100 μg/ml streptomycin. All recordings were performed at 18° C. and cells were super-fused with medium containing in mM: NaCl 82.5, KCl 2.5, HEPES 5, CaCl2·2H2O, ·6H2O 1, pH 7.4.
Plasmids containing the RNAs of the human GABRA1/GABRB2/GABRG2 and GABRA4/GABRB3/GABRD genes were injected into oocytes using a proprietary automated injection device (Hogg el al., J. Neurosci. Methods, (2008) 169: 65-75). These genes encode for the α1β2γ2 and α4β3δ GABAA subunits respectively. Receptor expression was assessed using electrophysiology at least two days later. The ratio of RNA injection for α1β2γ2 was 1:1:1 and for α4β3δ was 5:1:5. Electrophysiological recordings were made using an automated process equipped with standard TEVC and data were captured and analyzed using a proprietary data acquisition and analysis software running under Matlab (Mathworks Inc.). The membrane potential of the oocytes was maintained at −80 mV throughout the experiments. To explore the effects of proprietary compounds, currents were evoked by applying 10 μM (α1β2γ2) or 3 μM (α4β3δ) GABA for 30 s. These concentrations approximated the EC50 concentration of GABA at each receptor subtype. Oocytes were then re-exposed to GABA again for 30 s. 15 s after beginning the GABA application, test article was co-applied at a concentration of 10 μM for 15 s. Potentiation of the peak current was assessed. Data was filtered at 10 Hz, captured at 100 Hz and analyzed using proprietary data acquisition and analysis software running under Matlab (Mathworks Inc.). For statistical analysis values were computed either with Excel (Microsoft) or Matlab (mathworks Inc.). To obtain mean measurements with standard deviations, all experiments were carried out using at least three cells.

T1 sequence (P14867 28-456): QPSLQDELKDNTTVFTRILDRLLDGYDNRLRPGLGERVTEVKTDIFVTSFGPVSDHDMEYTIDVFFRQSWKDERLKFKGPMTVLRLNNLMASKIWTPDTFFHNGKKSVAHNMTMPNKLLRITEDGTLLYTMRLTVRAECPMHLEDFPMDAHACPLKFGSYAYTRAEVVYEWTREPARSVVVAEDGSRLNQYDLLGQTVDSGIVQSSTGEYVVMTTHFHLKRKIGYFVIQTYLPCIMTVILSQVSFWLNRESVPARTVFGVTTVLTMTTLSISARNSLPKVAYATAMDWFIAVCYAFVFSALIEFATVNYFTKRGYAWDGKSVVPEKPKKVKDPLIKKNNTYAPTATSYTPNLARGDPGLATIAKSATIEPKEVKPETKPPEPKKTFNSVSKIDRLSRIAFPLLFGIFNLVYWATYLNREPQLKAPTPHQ
T1 sequence (P47870 26-512): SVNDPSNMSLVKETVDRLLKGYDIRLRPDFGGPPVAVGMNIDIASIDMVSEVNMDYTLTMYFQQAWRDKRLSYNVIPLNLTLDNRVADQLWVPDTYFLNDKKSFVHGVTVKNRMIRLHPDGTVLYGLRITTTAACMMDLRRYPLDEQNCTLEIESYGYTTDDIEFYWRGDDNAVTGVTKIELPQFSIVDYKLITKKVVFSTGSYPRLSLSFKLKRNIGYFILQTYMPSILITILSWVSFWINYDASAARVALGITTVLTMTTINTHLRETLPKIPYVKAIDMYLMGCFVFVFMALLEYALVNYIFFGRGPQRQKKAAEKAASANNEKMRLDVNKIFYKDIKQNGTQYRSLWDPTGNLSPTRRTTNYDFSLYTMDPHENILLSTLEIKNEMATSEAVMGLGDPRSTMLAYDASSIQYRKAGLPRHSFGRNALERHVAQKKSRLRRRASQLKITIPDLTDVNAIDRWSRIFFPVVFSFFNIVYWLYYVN
T1 sequence (P18507 40-475 partner): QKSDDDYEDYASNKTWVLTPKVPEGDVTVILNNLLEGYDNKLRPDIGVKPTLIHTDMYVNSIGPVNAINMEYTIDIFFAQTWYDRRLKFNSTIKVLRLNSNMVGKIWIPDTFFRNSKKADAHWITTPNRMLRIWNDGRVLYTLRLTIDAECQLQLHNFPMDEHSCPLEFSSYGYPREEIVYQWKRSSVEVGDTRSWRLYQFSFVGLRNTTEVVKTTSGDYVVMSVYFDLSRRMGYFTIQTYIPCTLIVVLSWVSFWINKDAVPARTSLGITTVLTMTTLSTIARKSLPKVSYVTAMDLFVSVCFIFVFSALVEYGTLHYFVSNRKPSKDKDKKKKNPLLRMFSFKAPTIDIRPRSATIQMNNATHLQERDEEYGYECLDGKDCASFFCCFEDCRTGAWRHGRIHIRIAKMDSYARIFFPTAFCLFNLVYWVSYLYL

Row | SMILES | IC50 [1] | Emax at 10 µM [2]
1 | COC[C@]12CC[C@@](C)(O)C[C@H]1CC[C@H]1[C@@H]3CC[C@H](C(=O)Cn4nccn4)[C@@]3(C)CC[C@@H]12 [Compound 31] | 10 to 50 nM | 500 to 1000%
2 | COC[C@]12CC[C@@](C)(O)C[C@@H]1CC[C@H]1[C@@H]3CC[C@H](C(=O)Cn4ncc5ncccc54)[C@@]3(C)CC[C@@H]12 [Compound 38] | 50 to 100 nM | 500 to 1000%
3 | COC[C@]12CC[C@@](C)(O)C[C@@H]1CC[C@H]1[C@@H]3CC[C@H](C(=O)Cn4nnc5ccccc54)[C@@]3(C)CC[C@@H]12 [Compound 39] | 10 to 50 nM | 500 to 1000%
4 | COC[C@]12CC[C@@](C)(O)C[C@@H]1CC[C@H]1[C@@H]3CC[C@H](C(=O)Cn4nnc5ccc(F)cc54)[C@@]3(C)CC[C@@H]12 [Compound 41] | 10 to 50 nM | 1000 to 1500%
5 | COC[C@]12CC[C@@](C)(O)C[C@@H]1CC[C@H]1[C@@H]3CC[C@H](C(=O)Cn4nnc5cc(F)ccc54)[C@@]3(C)CC[C@@H]12 [Compound 42] | 10 to 50 nM | 500 to 1000%
6 | COC[C@]12CC[C@@](C)(O)C[C@@H]1CC[C@H]1[C@@H]3CC[C@H](C(=O)Cn4cc5ccncc5n4)[C@@]3(C)CC[C@@H]12 [Compound 44] | 10 to 50 nM | 1000 to 1500%
7 | COC[C@]12CC[C@@](C)(O)C[C@@H]1CC[C@H]1[C@@H]3CC[C@H](C(=O)Cn4cnc5ccccc54)[C@@]3(C)CC[C@@H]12 [Compound 46] | 50 to 100 nM | 1000 to 1500%
8 | COC[C@]12CC[C@@](C)(O)C[C@@H]1CC[C@H]1[C@@H]3CC[C@H](C(=O)Cn4nc5cccc(F)c5n4)[C@@]3(C)CC[C@@H]12 [Compound 49] | 10 to 50 nM | 500 to 1000%
9 | COC[C@]12CC[C@@](C)(O)C[C@@H]1CC[C@H]1[C@@H]3CC[C@H](C(=O)Cn4nc5ccc(OC)cc5n4)[C@@]3(C)CC[C@@H]12 [Compound 50] | 10 to 50 nM | 500 to 1000%
10 | COC[C@]12CC[C@@](C)(O)C[C@@H]1CC[C@H]1[C@@H]3CC[C@H](C(=O)Cn4nnc5c(F)c(F)ccc54)[C@@]3(C)CC[C@@H]12 [Compound 53] | 50 to 100 nM | 50 to 500%
11 | COC[C@]12CC[C@@](C)(O)C[C@@H]1CC[C@H]1[C@@H]3CC[C@H](C(=O)Cn4nnc5c(F)cc(F)cc54)[C@@]3(C)CC[C@@H]12 [Compound 56] | 50 to 100 nM | 50 to 500%
12 | COC[C@]12CC[C@@](C)(O)C[C@@H]1CC[C@H]1[C@@H]3CC[C@H](C(=O)Cn4nnc5c(Cl)cccc54)[C@@]3(C)CC[C@@H]12 [Compound 60] | 10 to 50 nM | 50 to 500%
13 | COC[C@]12CC[C@@](C)(O)C[C@@H]1CC[C@H]1[C@@H]3CC[C@H](C(=O)Cn4nc5cccc(Cl)c5n4)[C@@]3(C)CC[C@@H]12 [Compound 61] | < 10 nM | 500 to 1000%
14 | COC[C@]12CC[C@@](C)(O)C[C@@H]1CC[C@H]1[C@@H]3CC[C@H](C(=O)Cn4nnc5c(OC)c(OC)ccc54)[C@@]3(C)CC[C@@H]12 [Compound 63] | 10 to 50 nM | 500 to 1000%
15 | COC[C@]12CC[C@@](C)(O)C[C@@H]1CC[C@H]1[C@@H]3CC[C@H](C(=O)Cn4nc5cc(OC)cc(OC)c5n4)[C@@]3(C)CC[C@@H]12 [Compound 65] | < 10 nM | 500 to 1000%
16 | COC[C@]12CC[C@@](C)(O)C[C@H]1CC[C@H]1[C@@H]3CC[C@H](C(=O)Cn4nc5ccc(F)cc5n4)[C@@]3(C)CC[C@@H]12 [Compound 73] | < 10 nM | 500 to 1000%
17 | COC[C@]12CC[C@@](C)(O)C[C@H]1CC[C@H]1[C@@H]3CC[C@H](C(=O)Cn4nnc5ccc(F)cc54)[C@@]3(C)CC[C@@H]12 [Compound 74] | < 10 nM | 500 to 1000%
18 | COC[C@]12CC[C@@](C)(O)C[C@H]1CC[C@H]1[C@@H]3CC[C@H](C(=O)Cn4nnc5cc(F)ccc54)[C@@]3(C)CC[C@@H]12 [Compound 75] | 10 to 50 nM | 500 to 1000%
19 | COC[C@]12CC[C@@](C)(O)C[C@H]1CC[C@H]1[C@@H]3CC[C@H](C(=O)Cn4nnc5ccc(F)c(F)c54)[C@@]3(C)CC[C@@H]12 [Compound 77] | < 10 nM | 1000 to 1500%
20 | COC[C@]12CC[C@@](C)(O)C[C@H]1CC[C@H]1[C@@H]3CC[C@H](C(=O)Cn4cnc5ccccc54)[C@@]3(C)CC[C@@H]12 [Compound 80] | 10 to 50 nM | 500 to 1000%
21 | COC[C@]12CC[C@@](C)(O)C[C@H]1CC[C@H]1[C@@H]3CC[C@H](C(=O)Cn4nnc5cccc(F)c54)[C@@]3(C)CC[C@@H]12 [Compound 81] | 10 to 50 nM | 500 to 1000%
22 | COC[C@]12CC[C@@](C)(O)C[C@H]1CC[C@H]1[C@@H]3CC[C@H](C(=O)Cn4nc5cccc(F)c5n4)[C@@]3(C)CC[C@@H]12 [Compound 83] | < 10 nM | 1000 to 1500%
23 | COC[C@]12CC[C@@](C)(O)C[C@@H]1CC[C@H]1[C@@H]3CC[C@H](C(=O)Cn4nc5cc(F)c(F)cc5n4)[C@@]3(C)CC[C@@H]12 [Compound 97] | 10 to 50 nM | 500 to 1000%
24 | COC[C@]12CC[C@@](C)(O)C[C@@H]1CC[C@H]1[C@@H]3CC[C@H](C(=O)Cn4nc5cc(Cl)cnc5n4)[C@@]3(C)CC[C@@H]12 [Compound 99] | 10 to 50 nM | 1000 to 1500%
25 | COC[C@]12CC[C@@](C)(O)C[C@@H]1CC[C@H]1[C@@H]3CC[C@H](C(=O)Cn4nnc5cc(Cl)cnc54)[C@@]3(C)CC[C@@H]12 [Compound 100] | 100 to 500 nM | 500 to 1000%
26 | COC[C@]12CC[C@@](C)(O)C[C@@H]1CC[C@H]1[C@@H]3CC[C@H](C(=O)Cn4nnc5ncc(Cl)cc54)[C@@]3(C)CC[C@@H]12 [Compound 101] | 10 to 50 nM | 500 to 1000%
27 | COC[C@]12CC[C@@](C)(O)C[C@@H]1CC[C@H]1[C@@H]3CC[C@H](C(=O)Cn4cc5nccnc5n4)[C@@]3(C)CC[C@@H]12 [Compound 103] | > 500 nM | 1000 to 1500%
28 | COC[C@]12CC[C@@](C)(O)C[C@@H]1CC[C@H]1[C@@H]3CC[C@H](C(=O)Cn4ncc5cc(F)ccc54)[C@@]3(C)CC[C@@H]12 [Compound 107] | > 500 nM | 500 to 1000%
29 | COC[C@]12CC[C@@](C)(O)C[C@@H]1CC[C@H]1[C@@H]3CC[C@H](C(=O)Cn4ncc5ccc(F)cc54)[C@@]3(C)CC[C@@H]12 [Compound 110] | 50 to 100 nM | 500 to 1000%

From patent US12071453B2, “Neuroactive steroids, compositions, and uses thereof” (Sage Therapeutics, Inc., priority 2013, dated 2024)
